According to article PMC6332299, “Nonprenylated Xanthones from Gentiana lutea, Frasera caroliniensis, and Centaurium erythraea as Novel Inhibitors of Vascular Smooth Muscle Cell Proliferation” (Molecules, 2015):

Assays:
Format in all cases: cell-based
[1] = system: rat aortic VSMC; assay: Resazurin conversion assay of PDGF-induced VSMC proliferation; settings: for IC50 / activity at 30 µM: PDGF-BB 20 ng/mL; for IC50: concentrations 1, 3, 10, 30 µM, read-out: Inhibition of VSMC Proliferation, Resazurin Conversion Assay, IC50; for activity at 30 µM: 30 µM compound, residual proliferation relative to PDGF + 0.1% DMSO control = 1.00, means ± SD, n = 3, read-out: Inhibition of VSMC Proliferation, Resazurin Conversion Assay, at 30 µM (Relative to Solvent vehicle = 1.00, RU); for Anti-proliferative activity in rat aortic VSMC (in words): summary rating of the 14 xanthones
Method: With the aim to identify novel natural product inhibitors of VSMC proliferation, we tested several natural products (not shown) from our in-house compound collection on their ability to inhibit proliferation of rat aortic VSMC induced by the platelet-derived growth factor (PDGF), which is a mitogen strongly associated with aberrant proliferation in restenosis and leads to excessive proliferation of VSMC. After stimulation of the VSMC for 48 h with PDGF, the total number of metabolically active cells was measured by resazurin conversion. In this way, the xanthone gentisin (1,7-dihydroxy-3-methoxyxanthone (1)), previously isolated from the root material of G. lutea, a well-known medicinal bitter plant from the Gentianaceae family, was identified as a novel inhibitor of VSMC proliferation. […] Although an anti-proliferative effect of a prenylated xanthone has been described earlier, it represents a novel activity for simple, nonprenylated xanthones.
(§1) Rat aortic VSMC were acquired from Lonza and grown in Dulbecco’s modified essential medium (DMEM)–F12 (1:1) supplemented with 20% fetal calf serum (FCS) and gentamycin. For all experiments, cells were seeded in 96-well plates (5 × 10^3 cells/well) and incubated for 24 h. Subsequently, cells were serum-starved for another 24 h to make them quiescent.
Quiescent VSMC were pre-treated with the studied test compounds, G. lutea root extract, or vehicle (0.1% DMSO) for 30 min and then stimulated with PDGF-BB (20 ng/mL) for 48 h. The number of metabolically active VSMC was measured by resazurin conversion. Therefore, after washing the cells with phosphate-buffered saline (PBS), they were incubated in serum-free medium containing resazurin (10 µg/mL) for 2 h. Measurement of total metabolic activity was performed by monitoring the increase in fluorescence at 590 nm using an excitation wavelength of 535 nm in a 96-well plate reader (Tecan GENios Pro, Grödig, Austria). The assay was validated using the VSMC proliferation inhibitor taxol (IC50 = 0.1 µM [21]).

[2] = system: rat aortic VSMC; assay: BrdU incorporation assay (DNA synthesis) in PDGF-stimulated VSMC; settings: PDGF-BB 20 ng/mL, BrdU added after 2 h, read after 22 h, read-out: Inhibition of VSMC Proliferation, BrdU Assay, IC50
Method: In this assay, the DNA synthesis in dividing VSMC is measured by quantification of BrdU incorporation into newly synthesized DNA.
as §1
Quiescent VSMC were pre-treated with test compounds or vehicle (0.1% DMSO) for 30 min and then stimulated with PDGF-BB (20 ng/mL) for 2 h. Subsequently, BrdU was added to estimate de novo DNA synthesis in VSMC [29, 30]. After 22 h, the BrdU incorporation was determined according to the instructions of the manufacturer (Roche Diagnostics, Vienna, Austria).

[3] = system: rat aortic VSMC; assay: Assessment of cytotoxicity by LDH release; settings: concentration range up to 30 µM; PDGF-BB 20 ng/mL, 24 h
Method: Loss of VSMC membrane integrity as a sign for cell death was quantified by measuring the release of the soluble cytosolic protein LDH.
as §1
Quiescent VSMC were pre-treated with test compounds, positive control (digitonin 100 µg/mL, corresponding to 81 µM), or vehicle (0.1% DMSO) for 30 min and then stimulated with PDGF-BB (20 ng/mL) for 24 h. Loss of cell membrane integrity as an indicator for cell death was quantified by measuring the release of LDH [31, 32]. Therefore, the LDH activity of the cell supernatant was determined. To estimate total LDH, identically treated samples were incubated in the presence of 1% Triton X-100 for 45 min. […] The enzyme reaction was stopped by oxymate (1.78 mg/mL) and the absorbance was read at 490 nm. The percentage of extracellular LDH enzyme activity was calculated to estimate potential effects of the samples on cell viability.

[4] = Rattus norvegicus, VSMC, 48 h, 48 h

| Compound | Inhibition of PDGF-induced VSMC proliferation at 30 µM (in words) ([1]; 30 µM, 48 h, resazurin conversion) | IC50 ([1]; 48 h) | IC50 [1, 4] | activity at 30 µM ([1]; Rattus norvegicus, VSMC, 48 h) | Anti-proliferative activity in rat aortic VSMC (in words) [1] | IC50 [2] | Cytotoxicity (LDH release in the culture medium) [3] |
| --- | --- | --- | --- | --- | --- | --- | --- |
| COc1cc(O)c2c(=O)c3cc(O)ccc3oc2c1 [Compound 1, 1,7-dihydroxy-3-methoxyxanthone] | completely inhibited PDGF-induced proliferation to the basal level | 7.84 µM | 7.8 µM | 33.5 ± 17.5% | most potent compound | 5.74 µM | not cytotoxic |
| COc1ccc2oc3cc(O)cc(O)c3c(=O)c2c1 [Compound 2, 1,3-dihydroxy-7-methoxyxanthone] |  |  | 27 µM | 59.3 ± 8.4% | moderately active |  |  |
| COc1cc2oc3c(OC)cccc3c(=O)c2c(O)c1OC [Compound 3, 1-hydroxy-2,3,5-trimethoxyxanthone] |  |  |  | 83.2 ± 10.4% | weakly active or inactive |  |  |
| COc1c(OC)c(O)c2c(=O)c3cccc(OC)c3oc2c1OC [Compound 4, 1-hydroxy-2,3,4,5-tetramethoxyxanthone] |  |  | 11.2 µM | 21.6 ± 5.8% | potent inhibitory activity | 24.5 µM | not cytotoxic |
| COc1ccc2oc3c(OC)c(OC)c(OC)c(O)c3c(=O)c2c1 [Compound 5, 1-hydroxy-2,3,4,7-tetramethoxyxanthone] |  |  |  | 75.4 ± 1.4% | weakly active or inactive |  |  |
| COc1cc(O)c2c(=O)c3c(O)ccc(OC)c3oc2c1 [Compound 6, 1,8-dihydroxy-3,5-dimethoxyxanthone] |  |  | 12.5 µM | 51.4 ± 6.7% | potent inhibitory activity | 7.37 µM | not cytotoxic |
| COc1cc(O)c2c(=O)c3c(O)c(OC)ccc3oc2c1 [Compound 7, 1,8-dihydroxy-3,7-dimethoxyxanthone] |  |  | 10.2 µM | 0.2 ± 1.4% | potent inhibitory activity | 7.53 µM | not cytotoxic |
| COc1cc(O)c2c(=O)c3cccc(O)c3oc2c1 [Compound 8, 1,5-dihydroxy-3-methoxyxanthone] |  |  | 29.5 µM | 71.3 ± 6.1% | moderately active |  |  |
| COc1cc(O)c2c(=O)c3c(O)ccc(O)c3oc2c1 [Compound 9, 1,5,8-trihydroxy-3-methoxyxanthone] |  |  |  | 78.3 ± 3.1% |  |  |  |
| COc1cc(O)c2c(=O)c3ccc(O)c(OC)c3oc2c1 [Compound 10, 1,6-dihydroxy-3,5-dimethoxyxanthone] |  |  |  | 98.7 ± 2.5% |  |  |  |
| COc1c(O)cc2oc3c(OC)c(O)ccc3c(=O)c2c1O [Compound 11, 1,3,6-trihydroxy-2,5-dimethoxyxanthone] |  |  |  | 94.2 ± 4.2% |  |  |  |
| COc1cc(O)c2c(=O)c3c(OC)c(OC)c(O)c(OC)c3oc2c1 [Compound 12, 1,6-dihydroxy-3,5,7,8-tetramethoxyxanthone] |  |  |  | 86.2 ± 6.8% |  |  |  |
| COc1cc(O)c2c(=O)c3c(O)c(OC)c(O)c(OC)c3oc2c1 [Compound 13, 1,6,8-trihydroxy-3,5,7-trimethoxyxanthone] |  |  |  | 84.6 ± 9.6% |  |  |  |
| COc1c(O)cc2oc3c(O)cccc3c(=O)c2c1O [Compound 14, 1,3,5-trihydroxy-2-methoxyxanthone] |  |  |  | 86.2 ± 10.4% |  |  |  |
